Source: article PMC6503114, “Application of Antimicrobial Peptides of the Innate Immune System in Combination With Conventional Antibiotics—A Novel Way to Combat Antibiotic Resistance?” (Frontiers in Cellular and Infection Microbiology, 2019)
Where two headings read alike, the source gives them in different places.

Assays:
bacteria = assay: Checkerboard titration, synergy cases with conventional antibiotics (all tested bacteria); type: cell-based; settings: in vitro, human AMPs
Protocol: (§1) According to checkerboard titration template, one component (A) of the combination was diluted along the rows of the plate, while the other (B) was diluted down the columns, thereby creating the variety of mixtures with different concentrations of tested compounds. 2.5 μl of corresponding solutions of the components A and B were added into each well of the plate. Into the first column and the last row the same amount of 10 mM sodium phosphate buffer, pH 7.4, containing 0.1% of BSA was introduced instead of the second component. Thus, all wells contained 5 μl of antimicrobial compounds solutions (solo or in combination). The same volume of bacterial suspension, prepared as described for microdilution assay, was added into each well. The results were recorded after the overnight incubation, visually indicating the presence or absence of the microbial growth in the corresponding wells. Based on the obtained data the isobolograms of combined action were plotted and/or Fractional Inhibitory Concentration Indices (FICI) were calculated. […] Depending on the minimal value of the FICI the combined effect of the combination was classified as antagonism (FICI > 2), independent action (1 < FICI ≤ 2), additivity (0.5 < FICI ≤ 1) or synergy (FICI ≤ 0.5), as is recommended in the literature and due to some drawbacks of the serial dilution method (Hsieh et al., [1993]; Orhan et al., [2005]; Fehri et al., [2007]). FICIs were assessed in 3–6 independent experiments and median values were used to define the nature of interaction.

E. coli ML-35p = type: cell-based, Escherichia coli
Protocol: as §1

MRSA ATCC 33591 = type: cell-based, Staphylococcus aureus
Protocol: as §1

M. luteus CIP A270 = type: cell-based, Micrococcus luteus
Protocol: as §1

[1] = test system: A. baumannii (clin. isol.); type: cell-based, Acinetobacter baumannii; settings: AMP in combination with GEN (gentamicin)
Protocol: According to checkerboard titration template, one component (A) of the combination was diluted along the rows of the plate, while the other (B) was diluted down the columns, thereby creating the variety of mixtures with different concentrations of tested compounds. 2.5 μl of corresponding solutions of the components A and B were added into each well of the plate. Into the first column and the last row the same amount of 10 mM sodium phosphate buffer, pH 7.4, containing 0.1% of BSA was introduced instead of the second component. Thus, all wells contained 5 μl of antimicrobial compounds solutions (solo or in combination). The same volume of bacterial suspension, prepared as described for microdilution assay, was added into each well. The results were recorded after the overnight incubation, visually indicating the presence or absence of the microbial growth in the corresponding wells. Based on the obtained data the isobolograms of combined action were plotted and/or Fractional Inhibitory Concentration Indices (FICI) were calculated. […] FICIs were assessed in 3–6 independent experiments and median values were used to define the nature of interaction.

[2] = AMP in combination with GEN (gentamicin)
[3] = AMP in combination with PMB (polymyxin B)
[4] = AMP in combination with RIF (rifampicin)
[5] = AMP in combination with OX (oxacillin)

`CC[C@H](C)[C@H](NC(=O)[C@H](CCCCN)NC(=O)[C@H](CCC(=O)O)NC(=O)[C@H](CCCCN)NC(=O)[C@H](CO)NC(=O)[C@H](CCCCN)NC(=O)[C@H](CCCNC(=N)N)NC(=O)[C@H](Cc1ccccc1)NC(=O)[C@H](Cc1ccccc1)NC(=O)[C@H](CC(=O)O)NC(=O)CNC(=O)[C@H](CC(C)C)NC(=O)[C@@H](N)CC(C)C)C(=O)NCC(=O)N[C@@H](CCCCN)C(=O)N[C@@H](CCC(=O)O)C(=O)N[C@@H](Cc1ccccc1)C(=O)N[C@@H](CCCCN)C(=O)N[C@@H](CCCNC(=N)N)C(=O)N[C@H](C(=O)N[C@H](C(=O)N[C@@H](CCC(N)=O)C(=O)N[C@@H](CCCNC(=N)N)C(=O)N[C@H](C(=O)N[C@@H](CCCCN)C(=O)N[C@@H](CC(=O)O)C(=O)N[C@@H](Cc1ccccc1)C(=O)N[C@@H](CC(C)C)C(=O)N[C@@H](CCCNC(=N)N)C(=O)N[C@@H](CC(N)=O)C(=O)N[C@@H](CC(C)C)C(=O)N[C@H](C(=O)N1CCC[C@H]1C(=O)N[C@@H](CCCNC(=N)N)C(=O)N[C@H](C(=O)N[C@@H](CCC(=O)O)C(=O)N[C@@H](CO)C(=O)O)[C@@H](C)O)C(C)C)[C@@H](C)CC)C(C)C)[C@@H](C)CC` [LL-37] was tested, and the “AMP concentration in synergy cases with conventional antibiotics” value (bacteria) was “around 150 nM”.
For “Lysozyme: egg white lysozyme, antimicrobial protein, from BioChemica”, the “Minimal FICI” value (E. coli ML-35p; [2]) was 0.53, the “Minimal FICI” value (E. coli ML-35p; [3]) was 0.25 and the “Minimal FICI” value (E. coli ML-35p; [4]) was 0.62. The “Minimal FICI” value (MRSA ATCC 33591; [2]) was 0.53, the “Minimal FICI” value (MRSA ATCC 33591; [5]) was 0.53 and the “Minimal FICI” value (MRSA ATCC 33591; [3]) was 0.56. The “Minimal FICI” value (MRSA ATCC 33591; [4]) was 0.62, the “Minimal FICI” value (M. luteus CIP A270; [2]) was 0.62 and the “Minimal FICI” value (M. luteus CIP A270; AMP in combination with OFL (ofloxacin)) was 0.62. The “Minimal FICI” value (M. luteus CIP A270; [5]) was 0.75, the “Minimal FICI” value (M. luteus CIP A270; [3]) was 0.62 and the “Minimal FICI” value (M. luteus CIP A270; [4]) was 0.75. The “Minimal FICI” value [1] was 0.75.
